Experimental data published in PubChem BioAssay AID1508591.

Conditions: rat; liver microsomes; pH 7.4; 15.0 min; 1.0 µM
NC(CO)(CO)CCc1ccc(Sc2cccc(OCc3ccccc3)c2)cc1Cl gave a half-life of over 30 min. For CS(=O)(=O)c1ccc2nc(NC(=O)C3CC3)sc2c1, the half-life was over 30 min. Work on Cc1cccc(C)c1C(=O)Nc1cccc([S+](=O)([O-])N2CCCCCC2)c1 yielded a half-life of 1.6 min. CCN(CC)c1ccc(Nc2nc(Cl)ncc2Br)cc1 showed a half-life of 6.24 min. O=C1CCCC2=C1C(C1CCCCC1Cl)N=C(NC1NC3CCCCC3S1)N2 (configuration not stated) showed a half-life of 10.9 min. For O=C(Nc1ccc(-c2ccccc2)cc1)[C@H](Cc1ccc(O[S+](=O)([O-])c2cccc3cnccc23)cc1)N[S+](=O)([O-])c1cccc2cnccc12, the half-life was 3.1 min. With CC(=O)c1ccc(N2CCN(C(=O)c3ccc4c(c3)CC(=O)N4)CC2)cc1 the half-life was over 30 min. With Cc1ccc(NC2=C(c3ccc(C(F)(F)F)cc3)C(=O)c3ccccc32)cc1F the half-life was 8.96 min. With COc1cc(C(=S)N2CCN(CCO)CC2)ccc1OCc1ccc(C)cc1 the half-life was 3.2 min. For O=C1CCC(CNC(=O)c2nc(-c3ccccc3)cc3[nH]ccc23)N1 (configuration not stated), the half-life was over 30 min. Compound Cc1cc(C)nc(NC(=S)N2CCN(c3cccc(C(F)(F)F)c3)CC2)c1 has a half-life of over 30 min. In the case of CCOc1ccc(CCNC(=O)c2cccc(C(=O)c3ccccc3)c2)cc1OCC, the half-life is reported as 1.66 min. O=C(NCc1ccco1)c1nc2nc(-c3cccs3)cc(C(F)(F)F)n2n1 showed a half-life of over 30 min. O=C(NCCCN1CCCC1=O)c1ccc(-c2ncc3cnc(-c4ccccc4)cn23)cc1 showed a half-life of over 30 min. C=CCc1cccc(CNc2ccc(S(=O)(=O)Nc3nccs3)cc2)c1O showed a half-life of 19 min. Work on COC(=O)[C@@H]1C[C@H](OC(C)=O)C(=O)[C@H]2[C@@]1(C)CCC1C(=O)O[C@H](c3ccoc3)C[C@@]12C (some centres not stated) yielded a half-life of 9.8 min. CC1=C(C(=O)NC2CCCC2)C(c2nn(C)cc2Cl)N=C(Nc2nc3ccccc3o2)N1 (configuration not stated) showed a half-life of 2.7 min. For Cc1ccnc(NC(=S)N2CCN(c3ccc(Cl)c(Cl)c3)CC2)c1, the half-life was 24 min. O=S(=O)(Nc1nccs1)c1ccc(NCc2ccccc2O)cc1 showed a half-life of 24 min. Compound COc1cc(Nc2nc(-c3ccncc3)nc3ccccc23)ccc1F has a half-life of 7.35 min. For COc1ccc(CCn2c(N)cc(=O)[nH]c2=S)cc1OC, the half-life was over 30 min. Work on Cn1nnnc1Sc1ncnc2scc(Br)c12 yielded a half-life of 19.6 min. CCOc1ccccc1C(=O)Nc1cccnc1C(=O)Nc1cccc(S(=O)(=O)C(F)(F)F)c1 showed a half-life of over 30 min. Cc1ccc(S(=O)(=O)Nc2cnccc2C(=O)Nc2nc(-c3cccc(Cl)c3)cs2)cc1 gave a half-life of over 30 min. Work on COc1ccc(S(=O)(=O)N2CCCCCC2)cc1NC(=O)Cc1n[nH]c(=O)c2ccccc12 yielded a half-life of 2.9 min. In the case of CC(C(O)c1ccc(O)cc1)N1CCC(Cc2ccccc2)CC1 (configuration not stated), the half-life is reported as 2.55 min. With O=C(NCCCNc1nc(Nc2cccc(CN3CCOCC3)c2)ncc1C1CC1)C1CCC1 the half-life was 6.85 min. COc1ccc(NC(=O)c2c(C)cccc2C)cc1[S+](=O)([O-])N(C)C gave a half-life of over 30 min. In the case of Cc1ccccc1C(=O)N1CCc2cc(-c3nc(NC(=O)Cc4ccc5c(c4)OCCO5)sc3C)ccc21, the half-life is reported as 22 min. Work on COc1cccc(NC(=O)c2cc(-c3ccc(C)c(C)c3)nc3ccccc23)c1 yielded a half-life of 12 min. In the case of O=C(O)c1ccncc1Nc1nn(CCN2CCC(F)(F)CC2)c2ccc(F)cc12, the half-life is reported as 22.2 min. With O=C(c1ccc2c(c1)ncn2-c1ccc(C(F)(F)F)cc1)N1CCCCC1 the half-life was 7.6 min. O=C1CCCC2=C1C1(CCSC1)N=C(Nc1nc3ccccc3o1)N2 (configuration not stated) gave a half-life of 2.5 min. Compound CCn1cc(CNC(=O)c2cc(-c3ccc(C)cc3)nc3ccc(Br)cc23)c(C)n1 has a half-life of 10.9 min. Compound COc1cc2ncnc(Oc3cccc(NC(=O)Nc4cc(C(C)(C)C(F)(F)F)on4)c3)c2cc1OC has a half-life of over 30 min. Compound FC(F)(F)c1ccccc1-c1nc(NCc2ccc(-c3cccnc3)cc2)c2ccccc2n1 has a half-life of 9.18 min. Cc1cc(C)cc(C(=O)Nc2ccc3c(N4CCCC4)ncnc3c2)c1 showed a half-life of 8.23 min. Compound CCN(CC)CCO[C@H]1CC[C@@]2(C)C(=CC[C@@H]3[C@@H]2CC[C@]2(C)C(=O)CC[C@@H]32)C1 has a half-life of 5.67 min. O=C(Nc1nc(-c2ccc(F)cc2)cs1)c1ccncc1NS(=O)(=O)c1ccc(F)cc1 showed a half-life of over 30 min. Work on CC(=O)c1c(C)[nH]c(C(=O)Nc2ccc(Cl)cc2)c1C yielded a half-life of over 30 min. In the case of O=C(N/N=C/c1ccc(O)c(O)c1)c1cc2ccccc2cc1O, the half-life is reported as 15.1 min. Cc1ccc(NC(=O)NCC2CCN(Cc3cccc(Cl)c3)CC2)cc1Cl gave a half-life of 14.1 min. O=C1C2=C(Nc3ccccc3SC2c2ccco2)c2ccccc21 (configuration not stated) showed a half-life of 4.01 min. With CCCc1nnc(NC(=O)c2nc(S(=O)(=O)Cc3ccc(C)cc3)ncc2Cl)s1 the half-life was 5.28 min. CCOC(=O)C1CCN(C(=O)C2(NC(=O)Nc3ccc(F)cc3F)CCCCC2)CC1 gave a half-life of 2.7 min. Fc1cnc(-c2ccccc2C(F)F)nc1NCC1CCN(c2cnccn2)CC1 gave a half-life of 3.4 min. With COCC(C)NCc1cc2ccc(OC)cc2nc1N1CCN(c2ccc(F)cc2)CC1 (configuration not stated) the half-life was 10.4 min. Work on CC(C)(C)c1ccc(OCc2nn3c(-c4ccncc4)nnc3s2)cc1 yielded a half-life of 19.6 min. COc1cc(NC(=O)c2nc3ccccc3n(C)c2=O)cc(OC)c1OC showed a half-life of over 30 min. Cc1ccc(-c2ccnc(N3CCC(C(N)=O)CC3)n2)cc1 showed a half-life of 2.35 min. COc1ccnc(NC(=S)N2CCN(c3ccccc3C(F)(F)F)CC2)c1 showed a half-life of 2.9 min. NCC1CCC(C(=O)Oc2ccc(CCC(=O)O)cc2)CC1 (configuration not stated) gave a half-life of over 30 min.
